Data: US20100137346A1, “DESFE[…] ACTINIDE DEC[…]” (priority 2006, published 2010)
Read-outs that look alike come from different tables or passages of the source.

How the values were obtained:
[1] = Chelator-induced uranium excretion (urine + bile, 24 h) in bile duct-cannulated rat model; type: in vivo
Method: (§1) Desferrithiocin Analogue Induced Excretion of Uranium. In order to compare results with previous chelator-induced iron excretion data, the uranium clearance studies were carried out in a bile duct-cannulated rat model. The animals were given uranyl acetate dihydrate SC at a dose of 5 mg/kg (the actual dose of uranium is 2.8 mg/kg). Bile and urine samples were collected for 24 hours after dosing. Kidneys were removed from selected animals and tissue uranium concentration measured. At least three animals were utilized in each experimental group. Data from two separate control studies (uranyl acetate/ no chelator) have now been combined for a total of 14 control animals. All uranium concentrations were measured using ICPMS. The data are reported as the total quantity of uranium excreted [urine +bile]; the mode of excretion [urine/bile] is also given. In addition the percentage of the administered dose of uranium cleared and chelator-induced uranium excretion vs the controls is also given. Four positive controls were evaluated: DTPA (13, Table 1) given as its trisodium calcium salt, DFO (14), N,N′-bis(2hydroxybenzyl)ethylenediamine-N,N′-diacetic acid, monosodium salt (NaHBED, 15) and the hydroxypyridone CP94 (16) shown to bind uranium [Pashalidis, et al., Effective complex formation in the interaction of 1,2-dimethyl-3-hydroxypyrid-4-one (Deferiprone or L1) with uranium(VI), Journal of Radioanalytical and Nuclear Chemistry 1999; 242:181-184.] The total metal cleared after 24 h in control rats was 10% of the administered dose. When DTPA, 13, was given IP or PO at 300 μmol/kg immediately after uranium, the excretion was 17% and 8% of the administered dose respectively (p>0.05). However, when the drug was given IP at a dose of 600 μmol/kg immediately post-metal, the uranium excretion was significant, 20% (p<0.005). This is consistent with previously published data using a similar animal model.[Domingo, et al., Comparative effects of the chelators sodium 4,5-dihydroxybenzene-1,3-disulfonate (Tiron) and diethylenetriaminepentaacetic acid (DTPA) on acute uranium nephrotoxicity in rats, Toxicology 1997; 118:49-59] DFO (14) and CP94 (16) given IP immediately post uranyl acetate were ineffective.
Desferrithiocin Analogue-Induced Excretion of Uranium. In order to compare results with previous chelator-induced iron excretion data, the uranium clearance studies were carried out in a bile duct-cannulated rat model. The animals were given uranyl acetate dihydrate SC at a dose of 5 mg/kg (the actual dose of uranium is 2.8 mg/kg). Bile and urine samples were collected for 24 hours after dosing. Kidneys were removed from selected animals and tissue uranium concentration measured. At least three animals were utilized in each experimental group. Data from two separate control studies (uranyl acetate/ no chelator) are combined for a total of 14 control animals. All uranium concentrations were measured using ICPMS. The data are reported as the total quantity of uranium excreted [urine +bile]; the mode of excretion [urine/bile] is also given. In addition the percentage of the administered dose of uranium cleared and chelator-induced uranium excretion vs the controls is also given. Four positive controls were evaluated: DTPA (1, Table 1) given as its trisodium calcium salt, DFO (2), N,N -bis(2-hydroxybenzyl)ethylenediamine-N,N-diacetic acid, monosodium salt (NaHBED, 3) and the hydroxypyridone CP94 (4) shown to bind uranium. The total metal cleared after 24 h in control rats was 10% of the administered dose. When DTPA, 1, was given IP or PO at 300 μmol/kg immediately after uranium, the excretion was 17% and 8% of the administered dose respectively (p>0.05). However, when the drug was given IP at a dose of 600 μmol/kg immediately post metal, the uranium excretion was significant, 20% (p<0.005). This is consistent with previously published data using a similar animal model.^2 DFO (2) and CP94 (4) given IP immediately post uranyl acetate were ineffective.

[2] = cited from earlier work; for iron-clearing activity, in words: C. apella model
[3] = in vivo; cited from earlier work
[4] = in vivo; cited from earlier work; remark: listed apart in the source
[5] = Chelator accumulation in lung tissue; type: in vivo, rodents; conditions: SC 300 μmol/kg, 0.5 h post drug
Description: Chelator Access to Lung Tissue. As inhalation is one of the principal routes of potential actinide contamination, in a preliminary study aimed at this proposal, the accumulation of two different DFT analogues in lung tissue, (S)-4′-(HO)-DADMDFT (9, FIG. 1) and (S)-3′,4′-(CH3O)-DADMDFT, 19, Table 2)] was investigated. Rodents were given the drugs SC at a dose of 300 μmol/kg. The latter chelator is far more lipophilic than the former. The more lipophilic chelator (19) achieved a concentration of 290±66 nmol/g wet weight 0.5 h post drug. The level of the less lipophilic ligand (9) was much lower, 80±9 nmol/g wet weight 0.5 h post drug. This is consistent with the idea that organ targeting can be achieved,[Bergeron, et al., Impact of the Lipophilicity of Desferrithiocin Analogues on Iron Clearance, Medicinal Inorganic Chemistry 2005; 366-383] corroborating previous studies and further contributing to the index of success of the invention.

[6] = rats, same dose; cited from earlier work
[7] = Renal uranium content in uranyl acetate-treated bile duct-cannulated rats (FIG. 3); type: in vivo, rat
Method: as §1
The most promising analogue in the (S)-2-(2,4-dihydroxyphenyl)-4,5-dihydro-4-thiazolinecarboxylic series is the methoxy analogue (S)-4′-(CH3O)-DADMDFT (11). Given IP at 300 μmol/kg 0.5 h before uranyl acetate or immediately thereafter, nearly 30% of the metal was cleared (Table 1). This was also true if the drug was given IP 0.5 or 2 h post metal. The drug retains some efficacy given 4 h post uranium; 16% of the metal is excreted (p<0.006). When the chelator was given SC immediately post uranium, 40% of the administered metal was cleared. The increased excretion is probably associated with a slower absorption of the ligand. The data from rodents given the drug orally is even more encouraging (Table 1). […] The most profound data are associated with uranium decorporation from the kidneys (FIG. 3). When DTPA is given IP or PO at a dose of 300 μmol/kg immediately post metal, there is no reduction in renal uranium relative to controls. However, (S)-4′-(CH3O)-DADMDFT (11) given orally at a dose of 300 μmol/kg immediately post metal reduces renal uranium by 37% (p<0.005).
There is a small (16%) reduction when the drug is given PO at a dose of 300 μmol/kg 2 h post uranium. However, when 11 is given PO at a dose of 600 μmol/kg 0.5 h post metal, the renal uranium content is reduced by 76% (p<0.001). When given PO at the same dose 1 h post uranium exposure, the reduction is still significant, 42% (p<0.006). In all sets of ligands, the most lipophilic chelator is always the most toxic. […] On the basis of this finding, a less lipophilic, more water-soluble ligand than 12 was assembled, (S)-4′-(HO)-DADFT-PE (18, Table 1), a polyether analogue.

[8] = administered PO at a dose of 150 μmol/kg
[9] = iron-overloaded C. apella primate

## COc1ccc(C2=N[C@@](C)(C(=O)O)CS2)c(O)c1 [Compound 12, (S)-4,5-dihydro2-(2-hydroxy-4-methoxyphenyl)4-methyl-4-thiazolecarboxylic acid]
[1]; 300 μmol/kg IP Immediate
  % of Administered Dose Cleared: 20%
[1]; IP 300 μmol/kg, given 0.5 h post metal
  uranium excretion, in words: within error of control
[2]; in both rodents and primates
  iron-clearing efficiency, in words: excellent iron-clearing efficiency
[3]
  toxicity, in words: too toxic for clinical consideration
[4]
  metabolite formed by metabolic O-demethylation: (S)-4′-(HO)-DADFT (10)

## O=C(O)[C@H]1CSC(c2ccc(O)cc2O)=N1 [Compound 9, (S)-2(2,4-dihydroxyphenyl)-4,5-dihydro-4-thiazolecarboxylic acid]
[5]
  concentration in lung tissue: 80±9 nmol/g wet weight
[2]
  iron-clearing activity, in words: compatible with iron clearance
[2]; [8]
  ICE: 5.3%
[6]
  outcome of planned 10-day dosing regimen: did not display any frank toxicity

## COc1ccc(C2=N[C@@H](C(=O)O)CS2)c(O)c1OC [Compound 19, (S)-4,5-dihydro-2(3,4-dimethoxy-2-hydroxyphenyl)-4-thiazolecarboxylic acid]
[5]
  concentration in lung tissue: 290±66 nmol/g wet weight

## C[C@]1(C(=O)O)CSC(c2ccc(O)cc2O)=N1 [Compound 10, (S)-2-(2,4-dihydroxyphenyl)-4,5-dihydro-4-methyl-4-thiazolecarboxylic acid]
[1]; 300 μmol/kg IP Immediate
  % of Administered Dose Cleared: 19%
[2]
  iron-clearing activity, in words: compatible with iron clearance
[2]; given orally to the primates at an iron binding equivalent dose
  ICE: 13.4±5.8%
[6]
  outcome of planned 10-day dosing regimen: did not display any frank toxicity

## C[C@]1(C(=O)O)CSC(c2ccccc2O)=N1 [Compound 3, (S)-4,5-dihydro-2-(2-hydroxyphenyl)-4-methyl-4-thiazolecarboxylic acid]
[2]; [9]
  ICE: 13%
[6]
  outcome of planned 10-day dosing regimen: dead by day 5
[3]
  toxicity, in words: Severe gastrointestinal (GI) toxicity

## O=C(O)CN(CCN(CC(=O)O)CC(=O)O)CCN(CC(=O)O)CC(=O)O [DTPA, diethylenetriaminepentaacetic acid, reference compound]
[1]; 300 μmol/kg IP Immediate
  % of Administered Dose Cleared: 17%
[1]; 300 μmol/kg PO Immediate
  % of Administered Dose Cleared: 8%
[1]; 600 μmol/kg IP Immediate
  % of Administered Dose Cleared: 20%
[7]; IP 300 μmol/kg immediately post metal
  reduction in renal uranium relative to controls: no reduction
[7]; PO 300 μmol/kg immediately post metal
  reduction in renal uranium relative to controls: no reduction

## desferrioxamine [DFO, reference compound]
[1]; given IP immediately post uranyl acetate, doses per Table 1
  uranium clearance, in words: ineffective
[2]; subcutaneous administration, iron-loaded Cebus apella primate
  ICE: 5.0±2.6%

## O=C(O)[C@H]1CSC(c2ccccc2O)=N1 [Compound 4, (S)-4,5-dihydro-2-(2-hydroxyphenyl)-4-thiazolecarboxylic acid]
[2]; [8]
  ICE: 12.4%
[2]; [9]
  ICE: 12%
[6]
  outcome of planned 10-day dosing regimen: dead by day 5
[3]
  toxicity, in words: Severe gastrointestinal (GI) toxicity

## O=C(O)[C@H]1CSC(c2ccc(O)cc2O)=N1 [drawing 22]
[2]; orally to C. apella primates, 150 μmol/kg, [stool/urine], data from ref 19 / ref 17
  relative percentages of the iron excreted in the stool and urine: 70/30
[2]; orally to C. apella primates, 150 μmol/kg, data from ref 19 / ref 17
  Iron Clearing Efficiency (%): 4.2 ± 1.4%
